Measurements taken from US11007269B2, “P53 degradation inducing molecule and pharmaceutical composition” (Tokyo University of Science Foundation, priority 2016, dated 2021).

Test system: senescence-associated acidic β-galactosidase (SA-β-gal) inducing TIG3 cells
Assay: FACS analysis of SA-β-gal in doxorubicin senescence-induced TIG3 cells (anti-aging action)
Assay type: cell-based, human
Conditions: 50 μM added after doxorubicin (150 nM), 48 hours
Procedure: In Example 5, an anti-aging action in a senescence-associated acidic β-galactosidase (SA-β-gal) inducing TIG3 cells (human embryonic fibroblast) in which TIBC-CANDDY_MLN had been added was evaluated by FACS analysis.
TIG3 cells as normal cells were seeded in a 24-well plate at a cell density of 8×10^4 cells/well, and then cultured under conditions of 37° C. and 5 vol % CO2 for 16 hours.
After 16 hours from cell seeding, doxorubicin was added to each well at 150 nM/well to induce cellular senescence. As a medium, a serum-free medium (37° C.) in which 1 mass % L-glutamine solution (Sigma-Aldrich) was added to D-MEM (high D-glucose, phenol red, sodium pyruvate (Wako Pure Chemical Industries, Ltd.)) was used. It is noted that the L-glutamine solution was added immediately before use. After the addition of doxorubicin, culture was performed under conditions of 37° C. and 5 vol % CO2 for 24 hours.
After 24 hours from induction of senescence, TIBC-CANDDY_MLN was added to TIG3 cells as follows. As a medium, a serum-free medium (37° C.) in which 1 mass % L-glutamine solution (Sigma-Aldrich) was added to D-MEM (high D-glucose, phenol red, sodium pyruvate (Wako Pure Chemical Industries, Ltd.)) was used. It is noted that the L-glutamine solution was added immediately before use. A DMSO solution containing TIBC-CANDDY_MLN was mixed with the medium so that the concentration of DMSO was 1 vol %, and added to each well at 500 μL/well, and cultured under conditions of 37° C. and 5 vol % CO2 for 48 hours. As a control, DMSO was used.
For quantification of SA-β-gal as a senescence marker, a commercially available kit (Cellular Senescence Detection Kit-SPiDER-βGal (DOJINDO LABORATORIES)) was used. […]
A BD FACSCanto™ II (BD Biosciences) was used for flow cytometry to detect SA-β-gal labeled with FITC. […] A histogram of the FITC strength was created by an analysis software FlowJo™ (TOMY Digital Biology Co., Ltd.), and the senescence suppressing action by TIBC-CANDDY_MLN was evaluated from a shift in the histogram.

## CC(C)C[C@H](NC(=O)CNC(=O)c1cc(Cl)ccc1Cl)C(=O)NCCCCCCC(=O)Nc1ccc(C(=O)/C=C/c2ccc(I)cc2)cc1 [TIBC-CANDDY_MLN]
  cellular senescence suppressing action: about 80%
  shift to SA-β-gal (senescence marker) positive (FACS histogram): hardly observed
